{"source": "patent US11160770B2", "about": "“Compounds, compositions and methods for treating oxidative DNA damage disorders” (Indiana University Research and Technology Corporation, priority 2011, dated 2021)", "test_system": "sensory neurons", "experiment": "Capsaicin-evoked iCGRP release from sensory neurons after ionizing radiation", "assay_type": "cell-based, rat", "description": "EXAMPLE. Cell Cultures. Neuronal cultures were prepared from adult male (150-175 g) Sprague-Dawley rats (Harlan, Indianapolis, Ind.) as described in the published literature. Briefly, hippocampal cells were dissociated using papain and mechanical agitation and separated by gradient centrifugation. The pellet of cells from a discontinuous gradient of Optiprep in L-15 media was washed then resuspended in 1 mL of growth media consisting of Neurobasal Medium supplemented with 0.5 mM L-glutamine, 2% B-27 Supplement minus AO, 50 mg/mL Penicillin-Streptomycin, and 5 ng/mL of Basic Fibroblast Growth Factor (BFGF). Approximately 60,000 cells were plated onto poly-D-lysine and laminin coated plates and grown for 6-14 days in 5% CO2 at 37° C. Growth medium was changed every other day. For sensory neuronal culture, cells were dissociated using collagenase and mechanical dissociation. Approximately 30,000 DRG cells were plated into each well of 12 well culture plates or onto Lab-Tek chamber slides all precoated with poly-D-lysine and laminin. […]\nFor release studies, the sensory neuronal cultures were washed once with HEPES buffer consisting of (in mM) 25 HEPES, 135 NaCl, 3.5 KCl, 2.5 CaCl2, 1 MgCl2, 3.3 D-glucose, and 0.1% bovine serum albumin, pH 7.4 and maintained at 37° C. […] After each incubation, the buffer was removed and the amount of CGRP in each sample was measured using radioimmunoassay as previously described. […] Total content was calculated by adding the total amount released in all incubations to the amount measured in the cells. The release data is calculated as fmol released/well/[…] or as a % of the total peptide content in the cells. […]\nEXAMPLE. […] For these studies, the initially determined effects of exposing neuronal cultures to single or multiple doses of 10 Gy of IR on the content and release of iCGRP. 24 h after exposing sensory neurons to either one or two once-daily doses of 10 Gy, there was no significant effect on resting or capsaicin-evoked iCGRP release (as measured in fmol released/well of cells/10 min) or on the total content of CGRP in the cultures. […]", "data": [{"smiles": "CCCCCCCCC/C(=C\\C1=C(C)C(=O)C(OC)=C(OC)C1=O)C(=O)O", "note": "[Example 28]", "values": [{"measurement": "capsaicin-evoked iCGRP release after radiation", "setting": "10 μM or 20 μM E3330, 3 doses of 10 Gy, 30 nM capsaicin, 24 h after last dose", "value": "completely blocked the effects of radiation on peptide release"}, {"measurement": "capsaicin-evoked iCGRP release in control cells", "setting": "10 μM or 20 μM E3330, no radiation, 30 nM capsaicin", "value": "did not alter capsaicin-evoked release in control cells"}, {"measurement": "evoked release of iCGRP", "setting": "20 μM E3330, APE1 knock-down and 266-177 overexpression, 10 Gy per day for three days", "value": "5.9±0.5 % of total content"}]}]}
